Measurements as given in US10738028B2, “Spiro three-membered ring, spiro five-membered ring peptide deformylase inhibitor and use thereof in antibacteria and anti-tumor” (priority 2016, dated 2020).

Key:
Format in all cases: cell-based
[1] = system: HCT-116 colorectal cancer cell line; experiment: CCK-8 proliferation inhibition; details: concentration of 30 μM; 72 hours; CCK-8; 30 µM
Procedure, shortened: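 Growth inhibition is read by CCK-8 (1:10 dilution) after 72 h of compound exposure. HCT-116 cells grow in McCoy's 5A containing 10% newborn bovine serum at 2000 cells/well, with 1‰ DMSO as vehicle control.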

[2] = system: BEL-7402 liver cancer cell line; experiment: CCK-8 proliferation inhibition; details: concentration of 30 μM, 72 hours, 30 µM
Procedure, shortened: (§1)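 Plating at 2000 cells/well, then incubation overnight at 37° C. Next, a range of compound concentrations for 72 hours (control 1‰ DMSO). Finally, medium decanted and CCK-8 diluted 1:10 added.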

[3] = system: MGC-803 gastric cancer cell line; experiment: CCK-8 proliferation inhibition; details: concentration of 30 μM
Procedure, shortened: as §1

[4] = system: A549 lung cancer cell line; experiment: CCK-8 proliferation inhibition; details: concentration of 30 μM
Procedure, shortened: as §1

[5] = system: methicillin-resistant Staphylococcus aureus (MRSA); experiment: MIC, two-fold agar dilution (CLSI), clinical isolates
Procedure, shortened: (§2)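 CLSI two-fold agar dilution; MIC of test samples read per tested strain.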

[6] = system: methicillin-sensitive Staphylococcus epidermidis (MSSE); experiment: as above
Procedure, shortened: as §2

[7] = system: Escherichia coli (including ESBLs, non-ESBLs); experiment: as above
Procedure, shortened: as §2

[8] = system: Enterococcus faecalis (EFA); experiment: as above
Procedure, shortened: as §2

[9] = system: Streptococcus pneoumoniae (SPN); experiment: as above
Procedure, shortened: as §2

[10] = system: Enterococcus faecium (EFM); experiment: as above
Procedure, shortened: as §2

[11] = system: Moraxella catarrhalis (BCA); experiment: as above
Procedure, shortened: as §2

[12] = system: methicillin-resistant Staphylococcus epidermidis (MRSE); experiment: as above
Procedure, shortened: as §2

[13] = system: methicillin-sensitive Staphylococcus aureus (MSSA); experiment: as above
Procedure, shortened: as §2

O=C(C[C@@H](CC1CCCC1)C(=O)N1CC2(CC2)C[C@H]1C(=O)Nc1cnccn1)NO [Example 62]
75%: Inhibition of proliferation, Liver cancer BEL-7402 [2]
0.5 mg/L: Anti-bacterial activity (MIC), strain MRSA 15-2 ([5]; clinical isolate MRSA 15-2) | Anti-bacterial activity (MIC), strain MRSA 15-3 ([5]; clinical isolate MRSA 15-3) | Anti-bacterial activity (MIC), strain MRSA 15-4 ([5]; clinical isolate MRSA 15-4) | Anti-bacterial activity (MIC), strain MSSE 15-3 ([6]; clinical isolate MSSE 15-3) | Anti-bacterial activity (MIC), strain MSSE 15-4 ([6]; clinical isolate MSSE 15-4) | Anti-bacterial activity (MIC), strain MSSE 15-5 ([6]; clinical isolate MSSE 15-5) | Anti-bacterial activity (MIC), strain MSSE 15-6 ([6]; clinical isolate MSSE 15-6) | Anti-bacterial activity (MIC), strain ECO+ 15-1 ([7]; clinical isolate ECO+ 15-1) | Anti-bacterial activity (MIC), strain ECO+ 15-2 ([7]; clinical isolate ECO+ 15-2) | Anti-bacterial activity (MIC), strain ECO+ 15-3 ([7]; clinical isolate ECO+ 15-3) | Anti-bacterial activity (MIC), strain ECO+ 15-4 ([7]; clinical isolate ECO+ 15-4) | Anti-bacterial activity (MIC), strain SPN 16-4 ([9]; clinical isolate SPN 16-4) | Anti-bacterial activity (MIC), strain EFM 15-5 ([10]; clinical isolate EFM 15-5) | Anti-bacterial activity (MIC), strain EFM 15-6 ([10]; clinical isolate EFM 15-6) | Anti-bacterial activity (MIC), strain BCA 14-5 ([11]; clinical isolate BCA 14-5) | Anti-bacterial activity (MIC), strain MRSE 15-3 ([12]; clinical isolate MRSE 15-3) | Anti-bacterial activity (MIC), strain MRSE 15-7 ([12]; clinical isolate MRSE 15-7) | Anti-bacterial activity (MIC), strain MSSA 15-3 ([13]; clinical isolate MSSA 15-3) | Anti-bacterial activity (MIC), strain MSSA 15-4 ([13]; clinical isolate MSSA 15-4)
59%: Inhibition of proliferation, Lung cancer A549 ([4]; 72 hours, 30 µM)
> 50%: inhibition at 30 µM ([3]; Homo sapiens, MGC-803, 72 h) | inhibition at 30 µM ([4]; Homo sapiens, A549, 72 h)
0.125 mg/L: Anti-bacterial activity (MIC), strain MRSA 15-1 ([5]; clinical isolate MRSA 15-1)
16 mg/L: Anti-bacterial activity (MIC), strain ECO− 15-1 ([7]; clinical isolate ECO− 15-1) | Anti-bacterial activity (MIC), strain ECO− 15-2 ([7]; clinical isolate ECO− 15-2) | Anti-bacterial activity (MIC), strain ECO− 15-3 ([7]; clinical isolate ECO− 15-3) | Anti-bacterial activity (MIC), strain ECO− 15-4 ([7]; clinical isolate ECO− 15-4) | Anti-bacterial activity (MIC), strain MRSE 15-1 ([12]; clinical isolate MRSE 15-1) | Anti-bacterial activity (MIC), strain MRSE 15-2 ([12]; clinical isolate MRSE 15-2) | Anti-bacterial activity (MIC), strain MSSA 15-5 ([13]; clinical isolate MSSA 15-5) | Anti-bacterial activity (MIC), strain MSSA 15-6 ([13]; clinical isolate MSSA 15-6)
8 mg/L: Anti-bacterial activity (MIC), strain EFA 15-9 ([8]; clinical isolate EFA 15-9)
79%: HCT116 inhibition rate/% [1]
1 mg/L: Anti-bacterial activity (MIC), strain BCA 14-10 ([11]; clinical isolate BCA 14-10)
64%: Inhibition of proliferation, Gastric cancer MGC-803 ([3]; 72 hours, 30 µM)
> 32 mg/L: Anti-bacterial activity (MIC), strain EFA 15-1 ([8]; clinical isolate EFA 15-1) | Anti-bacterial activity (MIC), strain EFA 15-2 ([8]; clinical isolate EFA 15-2) | Anti-bacterial activity (MIC), strain EFA 15-3 ([8]; clinical isolate EFA 15-3) | Anti-bacterial activity (MIC), strain EFA 15-4 ([8]; clinical isolate EFA 15-4) | Anti-bacterial activity (MIC), strain EFA 15-5 ([8]; clinical isolate EFA 15-5) | Anti-bacterial activity (MIC), strain EFA 15-6 ([8]; clinical isolate EFA 15-6) | Anti-bacterial activity (MIC), strain EFM 15-1 ([10]; clinical isolate EFM 15-1) | Anti-bacterial activity (MIC), strain EFM 15-2 ([10]; clinical isolate EFM 15-2) | Anti-bacterial activity (MIC), strain EFM 15-3 ([10]; clinical isolate EFM 15-3) | Anti-bacterial activity (MIC), strain EFM 15-4 ([10]; clinical isolate EFM 15-4)
0.25 mg/L: Anti-bacterial activity (MIC), strain SPN 16-2 ([9]; clinical isolate SPN 16-2)
2 mg/L: Anti-bacterial activity (MIC), strain BCA 14-1 ([11]; clinical isolate BCA 14-1) | Anti-bacterial activity (MIC), strain BCA 14-4 ([11]; clinical isolate BCA 14-4) | Anti-bacterial activity (MIC), strain BCA 14-6 ([11]; clinical isolate BCA 14-6) | Anti-bacterial activity (MIC), strain BCA 14-7 ([11]; clinical isolate BCA 14-7) | Anti-bacterial activity (MIC), strain BCA 14-8 ([11]; clinical isolate BCA 14-8)
